Legend:
dopaminergic neurons = test: Survival of dopaminergic neurons with paraquat 12.5 μM challenge (Example 5, FIGS. 19, 20); format: cell-based, mouse; settings: for number of TH positive neurons normalized to the control treatment: FIG. 19
Description: Dopaminergic neurons were isolated and plated at a concentration of 1.000.000 cells/ml (100 μl/well) in a 96 well plate and cultured in medium with one or more of the various factors indicated, as described in the examples below. The survival of dopaminergic neurons in the presence and absence of various agents of the invention, either with or without paraquat challenge, is shown by the number of TH positive neurons normalized to the control treatment.
Dopaminergic neurons were isolated and plated at a concentration of 1.000.000 cells/ml (100 μl/well) in a 96 well plate. After 3-4 hours incubation at 37° C., 20 μl of medium was removed from each well. (VF=80 μl). Changes in medium and start point of the treatment were on the following day in vitro (DIV). The following protocol was employed to assess the survival of dopaminergic neurons in the presence and absence of various agents of the inventive combination, either with or without paraquat challenge. • DIV.1: Change half of medium N2 (40 μl) with fresh medium N2. • DIV.3: Change half of the medium and start with medium (control) or with medium A containing PB (0.15 mM) and TUDCA (0.5 mM), or with Medium A containing GA (normally 1 mM, 3 mM, or 10 mM) or with Medium A containing GA (1 mM or 3 mM) and PB (0.15 mM) or with Medium A containing GA (5 mM) and TUDCA (0.5 mM) or with Medium A containing PB (0.15 mM). Medium A is N2 medium but without FBS and N2-Supplement. • DIV.5: Second round of control or treatment with different treatments. Half of the medium (40 μl) was replaced by fresh medium A with the different agents. • DIV.7: Paraquat 12.5 μM treatment starts alone or in combination with the treatments explained above. Half of the medium (40 μl) was replaced by fresh medium A with the different treatment combinations or without (control). • DIV.9: Second day of treatment with Paraquat (PQ) 12.5 μM in addition to the other treatments as explained above. • DIV.11: Fixation 2% of PFA during 20 min at 37° C. or overnight at 4° C.
The effect of the different treatments on dopaminergic neurons survival upon exposure to paraquat was assessed through of TH+ neurons after treatment. Briefly, neurons were fixed using 2% paraformaldehyde for immunocytochemical analysis after treatment. Dopaminergic TH^+ neurons per well were identified and counted using an inverted fluorescence microscope (Olympus) under a 20× objective.

HeLa cells = test: Intracellular calcium, Fluo4-AM loaded HeLa cells, fluorescent plate reader; format: cell-based; settings: FIG. 12
Source text: HeLa cells were loaded with Fluo4-AM and fluorescence was monitored with the help of a fluorescent plate reader. Values are normalized to the initial fluorescent value.

[1] = human, in vivo, 15 weeks
Source text: Potential side effects were closely monitored.

[2] = test system: DJ-1 RNAi depleted HeLa cells; settings: DJ-1 RNAi depleted HeLa cells or paraquat challenge; cited from earlier work
[3] = test system: HeLa cells treated with siRNA against PARK-7/DJ-1; test: Calcium imaging on HeLa cells during mitosis after PARK-7/DJ-1 down-regulation; format: cell-based; settings: PARK-7/DJ-1 down-regulated HeLa cells, 5 mM, FIG. 17
Description: HeLa cells were loaded with Fluo-4 AM, a dye used to measure calcium concentration in living cells, as described by the manufacturer and recorded for 4 hours. Graphics show the variations in intracellular calcium concentration during mitosis in WT and cells treated with siRNA against PARK-7/DJ-1 to down-regulate this gene.
HeLa-Kyoto cells stably expressing histone H2B-mCherry and mouse DJ-1 were used. Cells were maintained in DMEM supplemented with 10% fetal bovine serum (FBS), 2 mM GlutaMAX, 100 unit/ml penicillin, 100 μg/ml streptomycin. For esiRNA treatment, cells were plated at a density of 15.000 cells/well in an ibidi 8 well chamber (Cat. no 80826, ibidi, Germany, EU), transfected with different esiRNAs (RLUC as empty vector, hPARK-7 and hKIF11 as positive control) (all esiRNAs were obtained from Eupheria, Germany, EU), and left for 72 hours before performing calcium imaging. esiRNA transfection was performed as follows. esiRNA was diluted in distilled water to a concentration of 20 ng/μl. For each well, two solutions were made: 1. […]
We observed that the Fluo-4 AM dye started to leak out of the cells into the medium after 1.5 hours of imaging. […] Images were analyzed using FIJI Image Analysis Freeware (https://fiji.sc). MFI of the Fluo-4 AM signal within the cell was determined using manually selected ROIs covering the whole cell area for each time-point. […]

O=C(O)CO [GA, 2-hydroxyethanoic acid]
number of TH positive neurons normalized to the control treatment (dopaminergic neurons; PQ 12.5 μM + 1 mM GA): 0.65
number of TH positive neurons normalized to the control treatment (dopaminergic neurons; PQ 12.5 μM + 3 mM GA): 0.71
survival of dopaminergic neurons (rescue) (dopaminergic neurons; PQ 12.5 μM + 5 mM GA alone): certain rescue
intracellular calcium (Fluo4-AM fluorescence normalized to initial value) (HeLa cells): reduce intracellular calcium
GA dose at which reactive instant feces deposition was observed [1]: above 120 mg/kg
GA dose leading to reactive instant feces deposition [1]: higher than 150 mg/kg
mitochondrial potential [2]: maintain or rescue mitochondrial potential
calcium influx during mitosis [3]: able to rescue this phenotype
